For orientation: melting point means the temperature of the solid-liquid transition.

`CCCCCCOc1ccccc1-c1nc(N)ncc1-c1ccc(=O)n(C(C)C)n1` [Example 207, 6-{2-Amino-4-[2-(hexyloxy)phenyl]-5-pyrimidinyl}-2-isopropyl-3(2H)-pyridazinone] registered a melting point of 92 °C.
`CC(C)n1nc(-c2c(-c3ccccc3)nc(N)[nH]c2=O)ccc1=O` [Example 140, 6-(2-amino-6-oxo-4-phenyl-1,6-dihydro-5-pyrimidinyl)-2-isopropyl-3(2H)-pyridazinone] displayed a melting point of 291 to 295 °C.
As for `COCCOc1nc(N)nc(-c2ccccc2)c1-c1ccc(=O)n(C(C)C)n1` [Example 87, 6-[2-Amino-4-(2-methoxyethoxy)-6-phenyl-5-pyrimidinyl]-2-isopropyl-3(2H)-pyridazinone], the melting point fell in the range of 128 to 130 °C.
To `Cn1nc(-c2cnc(N)nc2-c2ccccc2O)ccc1=O` (hydrate or solvate) [Example 224, 6-[2-Amino-4-(2-hydroxyphenyl)-5-pyrimidinyl]-2-methyl-3(2H)-pyridazinone] belongs 260 °C.
To `CC(C)n1nc(-c2cnc(N)nc2-c2ccc(OCCN(C)C)cc2)ccc1=O` [Example 217, 6-(2-amino-4-{4-(2-(dimethylamino)ethoxy]phenyl}-5-pyrimidinyl)-2-isopropyl-3(2H)-pyridazinone] belongs 162 °C.
To `CC(C)n1nc(-c2cnc(N)nc2-c2ccccc2OCCN2CCOCC2)ccc1=O` [Example 221, 6-(2-Amino-4-{2-[2-(4-morpholinyl)ethoxy]phenyl}-5-pyrimidinyl)-2-isopropyl-3(2H)-pyridazinone] belongs 115 °C; to `CC(C)n1nc(-c2cnc(N)nc2-c2ccccc2OCCN(C)C)ccc1=O` [Example 218, 6-(2-Amino-4-{2-[2-(dimethylamino)ethoxy]phenyl}-5-pyrimidinyl)-2-isopropyl-3(2H)-pyridazinone], 198 °C.
Consider `Cn1nc(-c2cnc(N)nc2-c2cccc(F)c2)ccc1=O` [Example 62, 6-[2-Amino-4-(3-fluorophenyl)-5-pyrimidinyl]-2-methyl-3(2H)-pyridazinone], for which the melting point was 212.5 °C.
To `CC(C)COc1ccc(-c2nc(N)ncc2-c2ccc(=O)n(C(C)C)n2)cc1` [Example 200, 6-[2-Amino-4-(4-isobutoxyphenyl)-5-pyrimidinyl]-2-isopropyl-3(2H)-pyridazinone] belongs 166 °C; to `Cc1ccc(-c2nc(N)ncc2-c2ccc(=O)n(C)n2)cc1` [Example 65, 6-[2-Amino-4-(4-methylphenyl)-5-pyrimidinyl]-2-methyl-3(2H)-pyridazinone], 230 °C; to `COc1ccc(-c2nc(N)ncc2-c2ccc(=O)n(C(C)C)n2)cc1F` [Example 46, 6-[2-Amino-4-(3-fluoro-4-methoxyphenyl)-5-pyrimidinyl]-2-isopropyl-3(2H)-pyridazinone], 174 °C.
The compound `CC(C)n1nc(-c2cnc(N)nc2-c2cccc(OCCF)c2)ccc1=O` [Example 211, 6-{2-Amino-4-[3-(2-fluoroethoxy)phenyl]-5-pyrimidinyl}-2-isopropyl-3(2H)-pyridazinone] showed a melting point of 123 °C.
The value for `CCCOc1ccc(-c2nc(N)ncc2-c2ccc(=O)n(C(C)C)n2)cc1` [Example 191, 6-[2-Amino-4-(4-propoxyphenyl)-5-pyrimidinyl]-2-isopropyl-3(2H)-pyridazinone] was 175 °C; that for `CC(C)n1nc(-c2c(-c3ccccc3)nc(N)nc2S(C)(=O)=O)ccc1=O` [Example 79, 6-[2-amino-4-(methylsulfonyl)-6-phenyl-5-pyrimidinyl]-2-isopropyl-3(2H)-pyridazinone] was 210 to 211 °C.
To `CC(C)n1nc(-c2c(OCC(N)=O)nc(N)nc2-c2ccccc2)ccc1=O` [Example 99, 2-{[2-amino-5-(1-isopropyl-6-oxo-1,6-dihydro-3-pyridazinyl)-6-phenyl-4-pyrimidinyl]oxy}acetamide] belongs 257 to 261 °C; to `COc1ccccc1-c1nc(N)ncc1-c1ccc(=O)n(C(C)C)n1` [Example 58, 6-[2-Amino-4-(2-methoxyphenyl)-5-pyrimidinyl]-2-isopropyl-3(2H)-pyridazinone], 170 °C.
The value for `Cc1cccc(-c2nc(N)ncc2-c2ccc(=O)[nH]n2)c1` [Example 42, 6-[2-Amino-4-(3-methylphenyl)-5-pyrimidinyl]-3(2H)-pyridazinone] was 216 °C; that for `CCOc1ccccc1-c1nc(N)ncc1-c1ccc(=O)n(C(C)C)n1` [Example 189, 6-[2-Amino-4-(2-ethoxyphenyl)-5-pyrimidinyl]-2-isopropyl-3(2H)-pyridazinone] was 185 °C.
Turning to `CC(C)n1nc(-c2c(OCC(=O)N(C)C)nc(N)nc2-c2ccccc2)ccc1=O` [Example 102, 2-{[2-Amino-5-(1-isopropyl-6-oxo-1,6-dihydro-3-pyridazinyl)-6-phenyl-4-pyrimidinyl]oxy}-N,N-dimethylacetamide], the melting point was in the range of 133 to 135.5 °C.
The compound `CCCOc1cccc(-c2nc(N)ncc2-c2ccc(=O)n(C(C)C)n2)c1` [Example 193, 6-[2-Amino-4-(3-propoxyphenyl)-5-pyrimidinyl]-2-isopropyl-3(2H)-pyridazinone] returned a melting point of 122 °C.
To `Nc1ncc(-c2ccc(=O)[nH]n2)c(-c2cccnc2)n1` [Example 31, 6-[2-Amino-4-(3-pyridinyl)-5-pyrimidinyl]-3(2H)-pyridazinone] belongs 256 °C.
`CSc1nc(N)nc(-c2ccc(F)cc2)c1-c1ccc(=O)n(C(C)C)n1` [Example 148, 6-[2-amino-4-(4-fluorophenyl)-6-(methylthio)-5-pyrimidinyl]-2-isopropyl-3(2H)-pyridazinone] yielded a melting point of 232 to 234 °C.
The value for `Nc1ncc(-c2ccc(=O)[nH]n2)c(-c2cccc(F)c2)n1` [Example 28, 6-[2-Amino-4-(3-fluorophenyl)-5-pyrimidinyl]-3(2H)-pyridazinone] was 249 °C.
The value for `CSc1nc(N)nc(-c2ccccc2)c1-c1ccc(=O)n(C(C)C)n1` [Example 78, 6-[2-amino-4-(methylthio)-6-phenyl-5-pyrimidinyl]-2-isopropyl-3(2H)-pyridazinone] was 221 to 222 °C; that for `CC(C)n1nc(-c2cnc(N)nc2-c2cccc(Cl)c2)ccc1=O` [Example 23, 6-[2-Amino-4-(3-chlorophenyl)-5-pyrimidinyl]-2-isopropyl-3(2H)-pyridazinone] was 236 to 237 °C; that for `COc1nc(N)nc(-c2ccc(S(C)(=O)=O)cc2)c1-c1ccc(=O)n(C(C)C)n1` [Example 150, 6-{2-amino-4-methoxy-6-[4-(methylsulfonyl)phenyl]-5-pyrimidinyl}-2-isopropyl-3(2H)-pyridazinone] was 148 to 151 °C.
To `COc1cccc(-c2nc(N)ncc2-c2ccc(=O)n(C(C)C)n2)c1` [Example 59, 6-[2-Amino-4-(3-methoxyphenyl)-5-pyrimidinyl]-2-isopropyl-3(2H)-pyridazinone] belongs 211 °C; to `Cn1nc(-c2cnc(N)nc2-c2ccc(F)c(F)c2)ccc1=O` [Example 66, 6-[2-Amino-4-(3,4-difluorophenyl)-5-pyrimidinyl]-2-methyl-3(2H)-pyridazinone], 231 °C.

The record behind these values is patent US20050043315A1, “Aminopyrimidine compounds, processes for their preparation and pharmaceutical compositions containing them” (priority 2002, published 2005).
